Tests used:
Assay type in all cases: functional, cell-based
SK-OV-3 = assay: Cytotoxicity against multidrug-sensitive human SKOV3 cells by SRB assay
[1] = Cytotoxicity against multidrug-resistant human SKVLB1cells by SRB assay
MDA-MB-435 = assay: Cytotoxicity against multidrug-sensitive human MDA-MB-435 cells by SRB assay

Question: With CC(C)=CCC/C(C)=C/Cc1cc(/C=C/c2cc(O)c(CC=C(C)C)c(O)c2)cc(O)c1O [MAPPAIN] as the compound, how does the IC50 (SK-OV-3) read?
Answer: 1300 nM

Question: What about the IC50 [1] of the same compound?
Answer: 1300 nM

Question: What about the IC50 (MDA-MB-435) of the same compound?
Answer: 1000 nM

Source: ChEMBL document CHEMBL1150230, “Mappain, a new cytotoxic prenylated stilbene from Macaranga mappa” (J Nat Prod, 2001)
